System: migraine and tension headaches
Experiment: treatment of pain from migraine and tension headaches with Q-10 (oral capsules vs nasal formulation)
Assay type: in vivo
Settings: oral administration of from 600 to 800 mg of Q-10 in the form of capsules
Source text: The spray according to the invention is preferably an oral or nasal spray, so that the administration of ubiquinone Qn or ubiquinone Qn precursors can be effected on an inhalative or intranasal route. The spray according to the invention is useful, in particular, for the treatment of pain conditions as encountered in migraine and neuropathy, in neural disorders, such as depressions, psychoses, lack of concentration, and in neurodegenerative diseases, such as Alzheimer's, Parkinson's, Huntington's, multiple sclerosis and cerebral paresis. The application as an oral or nasal spray seems to accelerate the transport of ubiquinone Qn or its precursors through the blood-brain barrier. […] In principle, however, doses of as high as 1000 mg can be employed.

In the case of `COC1=C(OC)C(=O)C(C/C=C(\C)CC/C=C(\C)CC/C=C(\C)CC/C=C(\C)CC/C=C(\C)CC/C=C(\C)CC/C=C(\C)CC/C=C(\C)CC/C=C(\C)CCC=C(C)C)=C(C)C1=O` [Q-10, 2,3-dimethoxy-5-methyl-6-deca-prenyl-1,4-benzoquinone], the effect on migraine is reported as “virtually no effect”.
